Usually LD50 stands for the dose expected to kill half of the subjects tested. Usually inhibition in vivo stands for the share of the control response that was lost under treatment. Low readings indicate a response near the control, high ones a response far below the control.

Each structure is given as a SMILES string.

Data set [1] is described as follows: Acute toxicity by intravenous route to mice. To be noted: mouse, in vivo, oxalate acid form except those marked (hydrochloride). How it is done: (§1) Acute toxicity tests were carried out on rats and mice. The following results were registered in comparison with butoprozine. The compounds of the invention were used in oxalate acid form except those marked (x) which were tested in hydrochloride form.

A short description of data set [2]: Acute toxicity by intragastric route to mice. Format: in vivo. To be noted: mouse, in vivo, po, oxalate acid form except those marked (hydrochloride). How it is done: as §1
Another data set has as its system mice. Put plainly: Acute toxicity by intragastric route to mice. To be noted: hydrochloride form (marked). Format: in vivo. How it is done:
as §1

Data set [3] can be described thus: Acute toxicity by intravenous route to rats. Type of data set: in vivo. The note with it: rat, in vivo, oxalate acid form except those marked (hydrochloride). As to the method: as §1
Another data set deals with ventricular fibrillation. Put plainly: Anti-arrhythmic properties, LAWSON test (chloroform-provoked arrhythmia), intragastric. Type of data set: in vivo. To be noted: Mus musculus, po, mice, read-out: AD50 (dose protecting 50% of the animals against ventricular fibrillation). How it is done:
The arrhythmia was provoked by making the animals inhale chloroform to total asphyxia and by later observing the ventricular rhythm. The dose of compound protecting 50% of the animals against ventricular fibrillation i.e. the AD50 was then recorded.

Data set [4] has as its system epinephrine-accelerated heart rate (anti-β effect). The data set can be described thus: Antiadrenergic effect: anti-β effect (reduction of epinephrine-accelerated heart rate). Type of data set: in vivo. To be noted: dog; for inhibition in vivo at 5 mg/kg: Canis lupus familiaris, iv, dose 5 mg/kg i.v. In outline: (§2)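 Pentobarbital-anaesthetized, atropinized dogs given an epinephrine dose (5–10 μg/kg) raising arterial pressure about 100 mm Hg, then test compound i.v. Reduction of the pressor response (anti-α) and of the ~70-beat tachycardia (anti-β) scored: + <50%, ++ ≥50%, +++ subtotal.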

A short description of data set [5]: Blood level after oral dose in the dog. Type of data set: in vivo. To be noted: same oral dose.
In data set [6] the test system is epinephrine-increased blood-pressure (anti-α effect). Put plainly: Antiadrenergic effect: anti-α effect (reduction of epinephrine-increased blood-pressure). Type of data set: in vivo. The note with it: dog. In outline:
as §2

For data set [7], the system named is blood-flow to the myocardium. The data set can be described thus: Effect on blood-flow to the myocardium, anaesthetized dogs, intravenous. Format: in vivo, dog. To be noted: dose 10 mg/kg i.v., anaesthetized dog. How it is done: It was undertaken on anaesthetized dogs which received the substance under study by intravenous route. The intensity of the maximum effect on blood-flow to the myocardium was expressed in percentage of the corresponding value before injection. The time required for the maximum effect to decrease by 50% represented the duration of the effect. This time was measured in minutes.

The next data set relates to dog. The data set can be described thus: Cardiac tolerance and general toxicity in long-term toxicity tests, oral, dog. To be noted: in vivo.
For data set [8], the system named is consumption of oxygen by the myocardium. Put plainly: Consumption of oxygen by the myocardium. To be noted: in vivo. An excerpt:
Furthermore, the indolizine derivatives present a β-antiadrenergic effect which is much more powerful than that of the derivatives of the aforesaid U.S. patent. At the minimum dose required to produce bradycardia, a reduction in arterial pressure, α-antiadrenergic and coronarodilatory effects to a significant degree, the β-antiadrenergic effect is, in fact, only slight in the case of the derivatives of the U.S. patent in question whereas it is much stronger with the indolizine derivatives of the invention. Moreover, the compounds of the invention reduce the consumption of oxygen by the myocardium calculated by multiplying the difference between the arterial and venous blood in oxygen by the coronary blood-flow. Thus, the compounds of the invention cause a considerable reduction in the arterio-venous difference which induces a decrease in the consumption of oxygen in spite of the increase of the coronary blood-flow.

For the compound `CCCCN(CCCC)CCCOc1ccc(C(=O)c2c(C)c(Br)c3ccccn23)cc1Br.Cl` [(*)Br/Br/H/CH3/n-C4H9/3, 1-Bromo-2-methyl-3-[4-(3-di-n-butylaminopropyl)-oxy-3-bromo-benzoyl]-indolizine hydrochloride], the LD50 in [1] was 50 mg/kg; in data set [2], greater than 5000 mg/kg; in data set [3], 70 mg/kg. This compound also had an LD0 with mice greater than 5000 mg/kg.
Consider `CCCCN(CCCC)CCCOc1ccc(C(=O)c2c(C)c(Br)c3ccccn23)cc1Br` [Br/Br/H/CH3/n-C4H9/3, 1-Bromo-2-methyl-3-[4-(3-di-n-butylaminopropyl)-oxy-3-bromo-benzoyl]-indolizine], for which the ED50 with ventricular fibrillation is 180 mg/kg. Also, in [4], the inhibition in vivo at 5 mg/kg was greater than 50%. In data set [4] (dose 10 mg/kg i.v.), the Anti-β effect entry is reported as “+++”. In addition, the “Blood level compared with butoprozine” value in data set [5] was “three times higher”. Besides, the Anti-α effect entry in data set [6] (dose 5 mg/kg i.v.) and in data set [6] (dose 10 mg/kg i.v.) was “+++” in each case.
With `CCCCN(CCCC)CCCOc1ccc(C(=O)c2c(CC)cc3ccccn23)cc1` [Butoprozine, 2-ethyl-3-[4-(3-di-n-butylaminopropyl)-oxy-benzoyl]-indolizine, reference compound], the ED50 in the data set on ventricular fibrillation came to 270 mg/kg. In data set [7] (Canis lupus familiaris, iv, read-out: Max. increase (blood-flow to the myocardium)), the change in vivo at 10 mg/kg was determined as 120%. Also, the “Time required to decrease to 50% (duration of effect)” value in data set [7] came to 4 min. In the data set on dog, the “Dose provoking ventricular arrhythmia (as low as)” value is 50 mg/kg/day. Besides, the Lethal dose with dog was 50 to 100 mg/kg/day. Besides, the inhibition in vivo at 5 mg/kg in data set [4] was less than 50%. Besides, the figures for the LD50 in data set [1], in [2] and in data set [3] were 25 mg/kg, 1600 mg/kg and 22 mg/kg, respectively. Moreover, the Anti-α effect entry in data set [6] (dose 5 mg/kg i.v.) was “+++”.
Regarding `OCCN(CCO)c1nc(N2CCCCC2)c2nc(N(CCO)CCO)nc(N3CCCCC3)c2n1` [dipyridamole], in data set [8], the “Consumption of oxygen by the myocardium” value is recorded as “does not decrease the consumption of oxygen by the myocardium”.

The record behind these values is patent US4520026A, “Indolizine derivatives and use as cardiovascular agents” (S. A. Labaz N.V., priority 1982, dated 1985).
